System: HEK293T cells carrying the ATF4 luciferase reporter
Test: ATF4-Luc assay (in vitro model of vanishing white matter disease)
Assay type: cell-based, human
Conditions: HEK293T cells with ATF4 5'-UTR firefly luciferase reporter, 1 μg/mL tunicamycin, 7 hours, One Glo luminescence
Method: In order to test exemplary compounds of the invention in a cellular context, a stable VWMD cell line was first constructed. The ATF4 reporter was prepared by fusing the human full-length ATF4 5′-UTR (NCBI Accession No. BC022088.2) in front of the firefly luciferase (FLuc) coding sequence lacking the initiator methionine as described in Sidrauski et al (eLife 2013). The construct was used to produce recombinant retroviruses using standard methods and the resulting viral supernatant was used to transduce HEK293T cells, which were then subsequently selected with puromycin to generate a stable cell line.
HEK293T cells carrying the ATF4 luciferase reporter were plated on polylysine coated 384-well plates (Greiner Bio-one) at 30,000 cells per well. Cells were treated the next day with 1 μg/mL tunicamycin and 200 nM of a compound of Formula (I) for 7 hours. Luminescence was measured using One Glo (Promega) as specified by the manufacturer. Cells were maintained in DMEM with L-glutamine supplemented with 10% heat-inactivated FBS (Gibco) and Antibiotic-Antimycotic solution (Gibco).
Table 2 below summarizes the EC50 data obtained using the ATF4-Luc assay for exemplary compounds of the invention.

## 2-(4-chloro-3-fluorophenoxy)-N-[3-(5-chloro-1-hydroxy-3-oxo-1,3-dihydro-2H-isoindol-2-yl)bicyclo[1.1.1]pentan-1-yl]acetamide and 2-(4-chloro-3-fluorophenoxy)-N-[3-(5-chloro-3-hydroxy-1-oxo-,3-dihydro-2H-isoindol-2-yl)bicyclo[1.1.1]pentan-1-yl]acetamide [Compound 153]
  EC50: > 2000 nM

## O=C(COc1ccc(Cl)c(F)c1)NC12CC(N3CC[C@@H](Oc4ccc(Cl)cc4)C3=O)(C1)C2 (single isomer, unassigned) [Compound 102]
Homo sapiens, HEK-293T
  EC50: 250 to 1000 nM

## O=C(COc1ccc(Cl)c(F)c1)NC12CC(N3CC[C@H](Oc4ccc(Cl)cc4)C3=O)(C1)C2 (single isomer, unassigned) [Compound 103]
Homo sapiens, HEK-293T
  EC50: 50 to 250 nM

## O=C(COc1ccc(Cl)c(F)c1)NC12CC(N3C(=O)c4cc(Cl)ccc4[C@@H]3O)(C1)C2 (single isomer, unassigned) [Compound 148, 2-(4-chloro-3-fluorophenoxy)-N-{3-[(1)-5-chloro-1-hydroxy-3-oxo-1,3-dihydro-2H-isoindol-2-yl]bicyclo[1.1.1]pentan-1-yl}acetamide]
Homo sapiens, HEK-293T
  EC50: > 2000 nM

## O=C(COc1ccc(Cl)c(F)c1)NC12CC(N3C(=O)c4ccc(Cl)cc4[C@H]3O)(C1)C2 (single isomer, unassigned) [Compound 149]
Homo sapiens, HEK-293T
  EC50: 250 to 1000 nM

## O=C(COc1ccc(Cl)c(F)c1)NC12CC(N3C(=O)c4ccc(Cl)cc4[C@@H]3O)(C1)C2 (single isomer, unassigned) [Compound 150]
Homo sapiens, HEK-293T
  EC50: 1000 to 2000 nM

## O=C(COc1ccc(Cl)c(F)c1)NC12CC(N3C(=O)c4cc(Cl)ccc4[C@H]3O)(C1)C2 (single isomer, unassigned) [Compound 151]
Homo sapiens, HEK-293T
  EC50: > 2000 nM

## O=C(COc1ccc(Cl)c(F)c1)NC12CCC(N3CC[C@@H](c4ccc(Cl)cc4)C3=O)(CC1)C[C@@H]2O (single isomer, unassigned) [Compound 154]
Homo sapiens, HEK-293T
  EC50: 250 to 1000 nM

## O=C(COc1ccc(Cl)c(F)c1)NC12CCC(N3CC[C@H](c4ccc(Cl)cc4)C3=O)(CC1)C[C@@H]2O (single isomer, unassigned) [Compound 155]
Homo sapiens, HEK-293T
  EC50: < 50 nM

## O=C(COc1ccc(Cl)c(F)c1)NC12CC(N3C[C@H](c4ccc(Cl)c(F)c4)OC3=O)(C1)C2 (single isomer, unassigned) [Compound 156]
Homo sapiens, HEK-293T
  EC50: 250 to 1000 nM

## O=C(COc1ccc(Cl)c(F)c1)NC12CC(N3C[C@@H](c4ccc(Cl)c(F)c4)OC3=O)(C1)C2 (single isomer, unassigned) [Compound 157]
Homo sapiens, HEK-293T
  EC50: 50 to 250 nM

## O=C(COc1ccc(Cl)c(F)c1)NC12CC(N3CCC(Oc4ccc(Cl)c(F)c4)C3=O)(C1)C2 (centres unmarked) [Compound 100, 2-(4-chloro-3-fluorophenoxy)-N-{3-[3-(4-chloro-3-fluorophenoxy)-2-oxopyrrolidin-1-yl]bicyclo[1.1.1]pentan-1-yl}acetamide]
Homo sapiens, HEK-293T
  EC50: 50 to 250 nM

## O=C(COc1ccc(Cl)c(F)c1)NC12CC(N3CCC(Oc4ccc(C(F)(F)F)nc4)C3=O)(C1)C2 (centres unmarked) [Compound 101, 2-(4-chloro-3-fluorophenoxy)-N-[3-(2-oxo-3-{[6-(trifluoromethyl)pyridin-3-yl]oxy}pyrrolidin-1-yl)bicyclo[1.1.1]pentan-1-yl]acetamide]
Homo sapiens, HEK-293T
  EC50: 250 to 1000 nM

## Cc1nn(C)c(C)c1OC1CCN(C23CC(NC(=O)COc4ccc(Cl)c(F)c4)(C2)C3)C1=O (centres unmarked) [Compound 104, 2-(4-chloro-3-fluorophenoxy)-N-(3-{2-oxo-3-[(1,3,5-trimethyl-1H-pyrazol-4-yl)oxy]pyrrolidin-1-yl}bicyclo[1.1.1]pentan-1-yl)acetamide]
Homo sapiens, HEK-293T
  EC50: > 2000 nM

## Cc1cc(OC2CCN(C34CC(NC(=O)COc5ccc(Cl)c(F)c5)(C3)C4)C2=O)no1 (centres unmarked) [Compound 105, 2-(4-chloro-3-fluorophenoxy)-N-(3-{3-[(5-methyl-1,2-oxazol-3-yl)oxy]-2-oxopyrrolidin-1-yl}bicyclo[1.1.1]pentan-1-yl)acetamide]
Homo sapiens, HEK-293T
  EC50: > 2000 nM

## Cn1cc(OC2CCN(C34CC(NC(=O)COc5ccc(Cl)c(F)c5)(C3)C4)C2=O)cn1 (centres unmarked) [Compound 106, 2-(4-chloro-3-fluorophenoxy)-N-(3-{3-[(1-methyl-H-pyrazol-4-yl)oxy]-2-oxopyrrolidin-1-yl}bicyclo[1.1.1]pentan-1-yl)acetamide]
Homo sapiens, HEK-293T
  EC50: > 2000 nM

## Cn1nc(C(F)(F)F)cc1OC1CCN(C23CC(NC(=O)COc4ccc(Cl)c(F)c4)(C2)C3)C1=O (centres unmarked) [Compound 107, 2-(4-chloro-3-fluorophenoxy)-N-[3-(3-{[1-methyl-3-(trifluoromethyl)-1H-pyrazol-5-yl]oxy}-2-oxopyrrolidin-1-yl)bicyclo[1.1.1]pentan-1-yl]acetamide]
Homo sapiens, HEK-293T
  EC50: > 2000 nM

## O=C(COc1ccc(Cl)c(F)c1)NC12CC(N3CCN(c4ccc(Cl)c(F)c4)C3=O)(C1)C2 [Compound 108, 2-(4-chloro-3-fluorophenoxy)-N-{3-[3-(4-chloro-3-fluorophenyl)-2-oxoimidazolidin-1-yl]bicyclo[1.1.1]pentan-1-yl}acetamide]
Homo sapiens, HEK-293T
  EC50: < 50 nM

## O=C(COc1ccc(Cl)c(F)c1)NC12CCC(N3CC(c4ccc(Cl)c(F)c4)=CC3=O)(CC1)C[C@@H]2O [Compound 109, 2-(4-chloro-3-fluorophenoxy)-N-{(2S)-4-[4-(4-chloro-3-fluorophenyl)-2-oxo-2,5-dihydro-1H-pyrrol-1-yl]-2-hydroxybicyclo[2.2.2]octan-1-yl}acetamide]
Homo sapiens, HEK-293T
  EC50: < 50 nM

## O=C(COc1ccc(Cl)c(F)c1)NC12CC(N3C(=O)OC[C@@H]3c3ccc(Cl)c(Cl)c3)(C1)C2 [Compound 110, 2-(4-chloro-3-fluorophenoxy)-N-{3-[(4S)-4-(3,4-dichlorophenyl)-2-oxo-1,3-oxazolidin-3-yl]bicyclo[1.1.1]pentan-1-yl}acetamide]
Homo sapiens, HEK-293T
  EC50: > 2000 nM

## O=C(COc1ccc(Cl)c(Cl)c1)NC12CC(N3CCN(Cc4ccc(Cl)cc4)C3=O)(C1)C2 [Compound 111, N-(3-{3-[(4-chlorophenyl)methyl]-2-oxoimidazolidin-1-yl}bicyclo[1.1.1]pentan-1-yl)-2-(3,4-dichlorophenoxy)acetamide]
Homo sapiens, HEK-293T
  EC50: > 2000 nM

## O=C(COc1ccc(Cl)c(F)c1)NC12CC(N3CCC(c4ccc(F)c(F)c4)OC3=O)(C1)C2 (centres unmarked) [Compound 112, 2-(4-chloro-3-fluorophenoxy)-N-{3-[6-(3,4-difluorophenyl)-2-oxo-1,3-oxazinan-3-yl]bicyclo[1.1.1]pentan-1-yl}acetamide]
Homo sapiens, HEK-293T
  EC50: > 2000 nM

## O=C(COc1ccc(Cl)c(F)c1)NC12CC(C3=NC(c4ccc(Cl)cc4)CO3)(C1)C2 (centres unmarked) [Compound 113, 2-(4-chloro-3-fluorophenoxy)-N-{3-[4-(4-chlorophenyl)-4,5-dihydro-1,3-oxazol-2-yl]bicyclo[1.1.1]pentan-1-yl}acetamide]
Homo sapiens, HEK-293T
  EC50: 250 to 1000 nM

## O=C(COc1ccc(Cl)c(F)c1)NC12CC(N3CCN(c4ccc(Cl)cc4)C3=O)(C1)C2 [Compound 114, 2-(4-chloro-3-fluorophenoxy)-N-{3-[3-(4-chlorophenyl)-2-oxoimidazolidin-1-yl]bicyclo[1.1.1]pentan-1-yl}acetamide]
Homo sapiens, HEK-293T
  EC50: < 50 nM

## O=C(COc1ccc(Cl)c(F)c1)NC12CC(N3CCN(c4ccccc4)C3=O)(C1)C2 [Compound 115, 2-(4-chloro-3-fluorophenoxy)-N-[3-(2-oxo-3-phenylimidazolidin-1-yl)bicyclo[1.1.1]pentan-1-yl]acetamide]
Homo sapiens, HEK-293T
  EC50: 250 to 1000 nM

## O=C(COc1ccc(Cl)c(F)c1)NC12CC(N3CC(c4ccc(Cl)c(F)c4)OC3=O)(C1)C2 (centres unmarked) [Compound 116, 2-(4-chloro-3-fluorophenoxy)-N-{3-[5-(4-chloro-3-fluorophenyl)-2-oxo-1,3-oxazolidin-3-yl]bicyclo[1.1.1]pentan-1-yl}acetamide]
Homo sapiens, HEK-293T
  EC50: 50 to 250 nM

## O=C(COc1ccc(F)c(Cl)c1)NC12CC(N3Cc4ccccc4C3=O)(C1)C2 [Compound 117, 2-(3-chloro-4-fluorophenoxy)-N-[3-(1-oxo-1,3-dihydro-2H-isoindol-2-yl)bicyclo[1.1.1]pentan-1-yl]acetamide]
Homo sapiens, HEK-293T
  EC50: 50 to 250 nM

## O=C(CCOc1ccc(Cl)cc1)N[C@H]1CC[C@H](N2CCN(c3cnc(C(F)F)cn3)C2=O)CC1 [Compound 118, 3-(4-chlorophenoxy)-N-[(1r,4r)-4-{3-[5-(difluoromethyl)pyrazin-2-yl]-2-oxoimidazolidin-1-yl}cyclohexyl]propanamide]
Homo sapiens, HEK-293T
  EC50: > 2000 nM

## O=C(CCOc1ccc(Cl)c(F)c1)N[C@H]1CC[C@H](N2CCN(c3cnc(C(F)F)cn3)C2=O)CC1 [Compound 119, 3-(4-chloro-3-fluorophenoxy)-N-[(1r,4r)-4-{3-[5-(difluoromethyl)pyrazin-2-yl]-2-oxoimidazolidin-1-yl}cyclohexyl]propanamide]
Homo sapiens, HEK-293T
  EC50: 250 to 1000 nM

## O=C(COc1ccc(Cl)c(Cl)c1)N[C@H]1CC[C@H](N2CCN(c3cnc(C(F)F)cn3)C2=O)CC1 [Compound 120, 2-(3,4-dichlorophenoxy)-N-[(1r,4r)-4-{3-[5-(difluoromethyl)pyrazin-2-yl]-2-oxoimidazolidin-1-yl}cyclohexyl]acetamide]
Homo sapiens, HEK-293T
  EC50: < 50 nM

## O=C(COc1ccc(Cl)c(F)c1)N[C@H]1CC[C@H](N2CCN(c3cnc(C(F)F)cn3)C2=O)CC1 [Compound 121, 2-(4-chloro-3-fluorophenoxy)-N-[(1r,4r)-4-{3-[5-(difluoromethyl)pyrazin-2-yl]-2-oxoimidazolidin-1-yl}cyclohexyl]acetamide]
Homo sapiens, HEK-293T
  EC50: < 50 nM

## O=C(N[C@H]1CC[C@H](N2CCN(c3cnc(C(F)F)cn3)C2=O)CC1)OCc1ccccc1 [Compound 122, benzyl [(1r,4r)-4-{3-[5-(difluoromethyl)pyrazin-2-yl]-2-oxoimidazolidin-1-yl}cyclohexyl]carbamate]
Homo sapiens, HEK-293T
  EC50: > 2000 nM
